US20140377379A1, “METHOD FOR PROGNOSING THE AGE-AT-ONSET OF HUNTINGTON'S DISEASE” (Institut National de la Sante et de la Recherche Medicale …, priority 2010, published 2014)
Entries after “also recorded” stand apart in the source; their conditions may differ.

Legend:
mutant htt = assay: Western blot of mutant htt in 109Q/109Q cells; assay type: cell-based, mouse
Procedure: (§1) Cell death assays for HdhQ111 mouse striatal cells expressing full-length htt with either wild-type (7Q/7Q) or mutant (109Q/109Q) polyglutamines were performed as previously described (Arango et al. 2006 Neurosci 26:4649-59). jetPEI was used for transfection with cDNA and jetSI-ENDO for siRNA assays as indicated by the manufacturer (PolyPlus Transfection). siRNA oligos were obtained from Clontech (β-catenin) and QIAGEN (SIRT1, SIRT2, SIRT3, UCP2 and UCP4). […] Cells were subjected to DAPI staining and cell death was scored 48 hours after cell transfection by counting picnotic versus normal nuclei in DAPI- and JetSI-ENDO-positive cells. Cytoplasmic and nuclear proteins were extracted as previously described (Arango et al. 2006 Neurosci 26:4649-59), separated by SDS-PAGE and analyzed by Western blotting using the following primary antibodies: Mouse anti-SIRT1 (Upstate, 1:1000), mouse anti-SIRT2 (Santa Cruz, 1:100), rabbit anti-SIRT-3 (Abgent, 1:100), rabbit-anti-β-catenin (Cell Signaling, 1:5000), mouse anti-FoxO3a (Cell Signaling, 1:1000), goat-anti-UCP2 (Santa Cruz, dilution), rabbit-anti-UCP4 (Abcam, 1:25), mouse anti-actin (Invitrogen, 1:2000), anti-htt (4C8, Chemicon, 1:5000). […] Proteins were detected using ECL+ and evaluated by densitometry. Quantitative Real-Time PCR experiments were performed as described in the Supporting Information/Materials and Methods. […]

UCP4 mRNA = assay: Quantitative RT-PCR of UCP4 mRNA in striatal cells; assay type: cell-based, mouse; details: for UCP4 mRNA levels: 109Q/109Q cells, qRT-PCR
Procedure: as §1, with “UCP4). Mixes of 3-4 different siRNA sequences per gene (25 or 33 nM) were systematically tested for modulation of cell survival and siRNA target gene expression, followed by the evaluation of individual siRNA sequences at optimal concentration (25-100 nM).” for “UCP4).”
Quantitative RT-PCR was performed on RNA extracted from 109Q/109Q mouse striatal cells, transfected with the appropriate siRNAs, to assess gene silencing efficiency. […]

109Q/109Q striatal cells = assay: Cell death assay in mutant htt striatal cells from HdhQ111 mice; assay type: cell-based, mouse
Procedure: Cell death assays for HdhQ111 mouse striatal cells expressing full-length htt with either wild-type (7Q/7Q) or mutant (109Q/109Q) polyglutamines were performed as previously described (Arango et al. 2006 Neurosci 26:4649-59). jetPEI was used for transfection with cDNA and jetSI-ENDO for siRNA assays as indicated by the manufacturer (PolyPlus Transfection). siRNA oligos were obtained from Clontech (β-catenin) and QIAGEN (SIRT1, SIRT2, SIRT3, UCP2 and UCP4). Mixes of 3-4 different siRNA sequences per gene (25 or 33 nM) were systematically tested for modulation of cell survival and siRNA target gene expression, followed by the evaluation of individual siRNA sequences at optimal concentration (25-100 nM). […] The siRNA sequences shown in figures are as it follows: β-catenin siRNA, 5′-[…]-3′ (100 nM) (SEQ ID NO:41); FoxO3a siRNA 5′-[…]-3′ (SEQ ID NO:42) (100 nM); SIRT1 siRNA, 5′-[…]-3′ (SEQ ID NO:43) (25 nM); SIRT2 siRNA 5′-[…]-3′ (SEQ ID NO:44) (25 nM); SIRT3 siRNA, 5′-[…]-3′ (SEQ ID NO:45) (25 nM); UCP2 siRNA, 5′-[…]-3′ (SEQ ID NO:46) (33 nM), and UCP4 siRNA sequences 5′-[…]-3′ (SEQ ID NO:47) (33 nM). The constructs encoding an active variant of SIRT1 (2 kb cDNA) lacking an internal segment in the N-terminus and full length FoxO3a were pcDNA3.1-sirt1-Flag and pcDNA3.1-FoxO3a-HA, respectively. Cells were subjected to DAPI staining and cell death was scored 48 hours after cell transfection by counting picnotic versus normal nuclei in DAPI- and JetSI-ENDO-positive cells. Cytoplasmic and nuclear proteins were extracted as previously described (Arango et al. 2006 Neurosci 26:4649-59), separated by SDS-PAGE and analyzed by Western blotting using the following primary antibodies: Mouse anti-SIRT1 (Upstate, 1:1000), mouse anti-SIRT2 (Santa Cruz, 1:100), rabbit anti-SIRT-3 (Abgent, 1:100), rabbit-anti-β-catenin (Cell Signaling, 1:5000), mouse anti-FoxO3a (Cell Signaling, 1:1000), goat-anti-UCP2 (Santa Cruz, dilution), rabbit-anti-UCP4 (Abcam, 1:25), mouse anti-actin (Invitrogen, 1:2000), anti-htt (4C8, Chemicon, 1:5000). Secondary antibodies were goat-anti-mouse IgG HRP-conjugated and goat-anti-rabbit IgG HRP-conjugated (Biorad). Proteins were detected using ECL+ and evaluated by densitometry. Quantitative Real-Time PCR experiments were performed as described in the Supporting Information/Materials and Methods. Chemicals were either purchased from Sigma (Resveratrol) and Calbiochem (B10, LiCl).

β-catenin = assay: Western blot of β-catenin in 109Q/109Q cells; assay type: cell-based, mouse
Procedure: as §1

[1] = test system: reactive oxygen species (ROS) levels in striatal cells; assay: ROS levels in striatal cells; assay type: cell-based, mouse
UCP2 mRNA = assay: Quantitative RT-PCR of UCP2 mRNA in striatal cells; assay type: cell-based, mouse
Procedure: as §1

7Q/7Q striatal cells = assay: Cell death assay in normal htt striatal cells; assay type: cell-based, mouse; details: siRNA
Procedure: as §1

[2] = test system: 19Q nematodes (normal polyQ); assay: Touch test in 19Q control nematodes; assay type: in vivo, C. elegans
Procedure: (§2) The wild-type strain of C. elegans used was Bristol N2. Standard methods of culturing and handling worms were used. All strains were scored at 20° C. Touch tests, scoring of PLM cell processes, drug response assays and quantitative Real-Time PCR were performed as previously described (Parker et al. 2005 Nat Genet. 37:349-350). Western analysis was performed using standard protocols and htt fusion proteins detected with the GFP antibody ab6556 (Abcam). Mutations and transgenes used in this study were: aak-2(ok524), bar-1(ga80), cfz-2(ok 1201), cst-1(tm1900), ctl-2(ok1137), cwn-1(ok546), cwn-2(ok895), daf-2(e1370), daf-16(mgD150), dhc-1(or195), dnc-1(or 404), egl-20(n585), ftt-2(n4426), geln3[sir-2.1(+)], igls1[mec-3::htt57Q128::CFP;mec-7::YFP;lin-15(+)], igls245[mec-3::htt57Q19::CFP; mec-7::YFP; lin-15(+)]. lin-17(n671), lin-44(n1792), mig-1(e1787), pop-1(q624), rrf-3(pk1426), sir-2.1(ok434), sod-3(gk235) and ucp-4(ok 195). […]
(§3) Touch tests involved scoring for the response to light touch at the tail by using a fine hair. […] The responses were recorded for every animal such that, for example, 3 responses out of 10 at the tail is given as 30% responsiveness, and the mean values for responsiveness were retained for comparison of nematode groups.

[3] = test system: PLM cells of 128Q animals; assay: Scoring of PLM cell processes (axonal swelling); assay type: in vivo, C. elegans; details: versus DMSO controls
Procedure: as §2, with “195). All strains were obtained from the C. elegans Genetics Center (University of Minnesota, Minneapolis) except for cst-1(tm1900) which was from the National Bioresource Project for the Nematode (Tokyo, Japan). For strain construction with polyQ transgenes, mutants were verified by visible phenotypes, PCR analysis for deletion mutants, sequencing for point mutations or a combination thereof.” for “195).”

[4] = test system: 128Q nematodes (expanded polyQ in touch receptor neurons); assay: Touch test (response to light touch at the tail) in 128Q nematodes; assay type: in vivo, C. elegans
Procedure: as §2, §3

[5] = siRNA 25-100 nM, cell death scored 48 hours after transfection, versus untreated

Q: What does the source list for “UCP4 siRNA: siRNA 5′-GCCTATAGTATGTGCTTAATT-3′ (SEQ ID NO:47) (33 nM) (listed as DNA, chemistry not given here)”?
A: mutant htt expression (mutant htt): unchanged; also recorded: no change in htt expression; UCP4 mRNA levels (UCP4 mRNA): decreased UCP4 mRNA levels; survival of 109Q/109Q cells (109Q/109Q striatal cells; [5]): increased the survival of 109Q/109Q cells

Q: For “β-catenin siRNA: siRNA 5′-GGCTTTTCCCAGTCCTTCATT-3′ (100 nM) (SEQ ID NO:41) (listed as DNA, chemistry not given here)”, which β-catenin expression (β-catenin) is on record?
A: β-catenin was reduced

Q: And the ROS levels ([1]; mutant htt (109Q/109Q) striatal cells, versus untreated)?
A: increased reactive oxygen species (ROS) levels in mutant htt striatal cells

Q: And the ROS levels ([1]; normal htt (7Q/7Q) cells)?
A: no effects in normal htt cells

Q: And the mutant htt expression (mutant htt)?
A: unchanged; also recorded: no change in htt expression

Q: And the UCP4 expression (UCP4 mRNA; 7Q/7Q cells)?
A: No effect

Q: What about the “UCP4 mRNA levels” value (UCP4 mRNA) of the same molecule?
A: upregulated

Q: And the UCP2 expression (UCP2 mRNA; 7Q/7Q cells)?
A: No effect

Q: What about the “UCP2 mRNA levels” value (UCP2 mRNA; 109Q/109Q cells, qRT-PCR) of the same molecule?
A: downregulated; also recorded: decreased UCP2 mRNA levels

Q: What about the “survival of normal htt (7Q/7Q) cells” value (7Q/7Q striatal cells) of the same molecule?
A: no effects in normal htt cells

Q: And the “survival of 109Q/109Q cells” value (109Q/109Q striatal cells; [5])?
A: reduced the survival of mutant htt striatal cells; also recorded: decreased the survival of 109Q/109Q cells

Q: How did the “effect on normal polyQ (19Q) controls, touch response” value [2] turn out when [Cl-].[Li+] [Lithium chloride] was run?
A: no effects on 19Q controls

Q: Which results are given for O=C1Nc2cc(Br)ccc2/C1=C1/Nc2ccccc2/C1=N\O [BIO, 6-bromoindirubin-3′-oxime]?
A: axonal swelling (AxSw) [3]: reduced AxSw in PLM cells of 128Q animals; also recorded: reduced axonal swelling; neuronal dysfunction / expanded polyQ neurotoxicity (loss of response to touch) ([4]; 128Q nematodes, versus DMSO or untreated […]Q controls): rescues expanded polyQ neurotoxicity; also recorded: reduced neuronal dysfunction in 1280 animals; BIO rescuing activity in 128Q animals mutant for FoxO network genes ([4]; 128Q, mutants for daf-16, sir-2.1, bar-1 and ucp-4): lost and in a bar-1 dependent manner and no effect in mutants for sir-2.1, daf-16 and ucp-4; effect on normal polyQ (19Q) controls, touch response [2]: no effect on 19Q controls; survival effect of BIO combined with β-catenin siRNA (109Q/109Q striatal cells; BIO 0.5 μM + β-catenin siRNA, 109Q/109Q cells): lost by β-catenin siRNA; survival of 109Q/109Q cells (109Q/109Q striatal cells; BIO 0.5 μM, cell death induced by serum deprivation, versus DMSO controls): enhanced the survival of 109Q/109Q cells
